Results from PubChem BioAssay AID248 (DTP/NCI, 2004).
“And” between values parts separate entries of the source, which are not always exact repeats. Identical values can stand only once. Inconclusive results and toxic doses are left out. No stated cut-off is given here; in the data, active means T/C of 150% or more; inactive means T/C below 125%.

Tested on: L1210 leukemia ip in BDF1 mice, survival T/C
Assay: NCI In Vivo Anticancer Drug Screen. Data for tumor model L1210 Leukemia (intraperitoneal) in B6D2F1 (BDF1) mice
Details: endpoint: mean survival time, higher = longer survival
Summary of the method: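 Each compound was tested against a transplantable tumor grown in mice. The endpoint was survival, with treated animals benchmarked against vehicle controls as a simple ratio.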

[1] = dose: 100.0 mg/kg/injection, schedule: Q04DX003 (ip), vehicle: Klucel (hydroxypropylcellulose) (HPC)
[2] = dose: 200.0 mg/kg/injection, schedule: Q04DX003 (ip), vehicle: Klucel (hydroxypropylcellulose) (HPC)
[3] = dose: 400.0 mg/kg/injection, schedule: Q04DX003 (ip), vehicle: Klucel (hydroxypropylcellulose) (HPC)
[4] = dose: 50.0 mg/kg/injection, schedule: Q01DX001 (ip), vehicle: saline
[5] = dose: 100.0 mg/kg/injection, schedule: Q01DX001 (ip), vehicle: saline
[6] = dose: 200.0 mg/kg/injection, schedule: Q01DX001 (ip), vehicle: saline
[7] = dose: 400.0 mg/kg/injection, schedule: Q01DX001 (ip), vehicle: saline
[8] = dose: 100.0 mg/kg/injection, schedule: Q01DX001 (ip), vehicle: Klucel (hydroxypropylcellulose) (HPC)
[9] = dose: 200.0 mg/kg/injection, schedule: Q01DX001 (ip), vehicle: Klucel (hydroxypropylcellulose) (HPC)
[10] = dose: 400.0 mg/kg/injection, schedule: Q01DX001 (ip), vehicle: Klucel (hydroxypropylcellulose) (HPC)
[11] = dose: 25.0 mg/kg/injection, schedule: Q01DX009 (ip), vehicle: Klucel (hydroxypropylcellulose) (HPC)
[12] = dose: 50.0 mg/kg/injection, schedule: Q01DX009 (ip), vehicle: Klucel (hydroxypropylcellulose) (HPC)
[13] = dose: 100.0 mg/kg/injection, schedule: Q01DX009 (ip), vehicle: Klucel (hydroxypropylcellulose) (HPC)
[14] = dose: 100.0 mg/kg/injection, schedule: Q01DX001 (ip), vehicle: carboxymethylcellulose (CMC)
[15] = dose: 200.0 mg/kg/injection, schedule: Q01DX001 (ip), vehicle: carboxymethylcellulose (CMC)
[16] = dose: 400.0 mg/kg/injection, schedule: Q01DX001 (ip), vehicle: carboxymethylcellulose (CMC)
[17] = dose: 200.0 mg/kg/injection, schedule: Q01DX009 (ip), vehicle: Klucel (hydroxypropylcellulose) (HPC)
[18] = dose: 400.0 mg/kg/injection, schedule: Q01DX009 (ip), vehicle: Klucel (hydroxypropylcellulose) (HPC)

Measured: T/C

Nc1ccccc1/C=C(\C(=O)O)c1cccc(Cl)c1
inactive: [1] 99 % of control | [2] 101 % of control | [3] 108 % of control

C[N+](C)(CC(=O)Nc1cc(C(F)(F)F)cc(C(F)(F)F)c1)CC(=O)Nc1ccc(Cl)c(C(F)(F)F)c1
inactive: dose: 6.25 mg/kg/injection, schedule: Q04DX002 (ip), vehicle: saline with Tween-80 93 % of control | dose: 12.5 mg/kg/injection, schedule: Q04DX002 (ip), vehicle: saline with Tween-80 93 % of control | dose: 25.0 mg/kg/injection, schedule: Q04DX002 (ip), vehicle: saline with Tween-80 100 % of control and 91 % of control

CCC(Nc1ccccc1)Nc1ccccc1
inactive: dose: 100.0 mg/kg/injection, schedule: Q04DX003 (ip), vehicle: acetone 112 % of control | dose: 200.0 mg/kg/injection, schedule: Q04DX003 (ip), vehicle: acetone 87 % of control | dose: 400.0 mg/kg/injection, schedule: Q04DX003 (ip), vehicle: acetone 94 % of control

CN(C)NC(=O)/C=C\C(=O)O
inactive: dose: 100.0 mg/kg/injection, schedule: Q04DX002 (ip), vehicle: saline with Tween-80 93 % of control | dose: 200.0 mg/kg/injection, schedule: Q04DX002 (ip), vehicle: saline with Tween-80 100 % of control | dose: 400.0 mg/kg/injection, schedule: Q04DX002 (ip), vehicle: saline with Tween-80 93 % of control

COc1ccccc1CN1CCCN(Cc2ccccc2OC)C1c1cc(Br)ccc1O
inactive: [4] 95 % of control | [5] 103 % of control | [6] 103 % of control | [7] 103 % of control

O=[N+]([O-])c1ccc[nH]1
inactive: dose: 100.0 mg/kg/injection, schedule: Q04DX003 (ip), vehicle: saline 98 % of control

Nc1ccccc1SCCC(=O)O
inactive: dose: 37.5 mg/kg/injection, schedule: Q04DX003 (ip), vehicle: Klucel (hydroxypropylcellulose) (HPC) 96 % of control | dose: 75.0 mg/kg/injection, schedule: Q01DX009 (ip), vehicle: saline with Tween-80 106 % of control | dose: 75.0 mg/kg/injection, schedule: Q04DX003 (ip), vehicle: Klucel (hydroxypropylcellulose) (HPC) 86 % of control | dose: 150.0 mg/kg/injection, schedule: Q01DX009 (ip), vehicle: saline with Tween-80 105 % of control | dose: 150.0 mg/kg/injection, schedule: Q04DX003 (ip), vehicle: Klucel (hydroxypropylcellulose) (HPC) 91 % of control | dose: 300.0 mg/kg/injection, schedule: Q01DX009 (ip), vehicle: saline with Tween-80 98 % of control | dose: 300.0 mg/kg/injection, schedule: Q04DX003 (ip), vehicle: Klucel (hydroxypropylcellulose) (HPC) 96 % of control

CCOC(=O)C(CCC(=O)OC)C1=NC(C)(C)CC(C)O1 (stereo not drawn)
inactive: [8] 106 % of control | [9] 110 % of control | [10] 97 % of control

C#CCCCCC#[C][Hg][C]#CCCCCC#C
inactive: dose: 75.0 mg/kg/injection, schedule: Q01DX001 (ip), vehicle: saline 94 % of control

Nc1cc(N)ncn1
inactive: [11] 101 % of control | [12] 98 % of control | [13] 102 % of control

CC(O)c1nc2ccccc2n1C (stereo not drawn)
inactive: dose: 333.0 mg/kg/injection, schedule: Q01DX Z (ip), vehicle: saline 118 % of control | dose: 500.0 mg/kg/injection, schedule: Q01DX Z (ip), vehicle: saline 98 % of control

CC12CCC3C4CCC(O)CC4=CCC3C1CCC2=O (stereo not drawn)
inactive: dose: 50.0 mg/kg/injection, schedule: Q01DX001 (ip), vehicle: Klucel (hydroxypropylcellulose) (HPC) 107 % of control | [8] 104 % of control and 107 % of control | [9] 92 % of control | [10] 104 % of control

CC12CCC3C4CCC(=O)C(O)=C4CCC3C1CCC2OC(=O)CCC1CCCC1 (stereo not drawn)
inactive: dose: 100.0 mg/kg/injection, schedule: Q01DX009 (sc), vehicle: steriod suspending solution 96 % of control | dose: 200.0 mg/kg/injection, schedule: Q01DX009 (sc), vehicle: steriod suspending solution 107 % of control | dose: 400.0 mg/kg/injection, schedule: Q01DX009 (sc), vehicle: steriod suspending solution 100 % of control

COc1cc([C@@H]2c3cc4c(cc3[C@H](OC(C)=O)[C@H]3COC(=O)[C@@H]23)OCO4)cc(OC)c1OC
inactive: dose: 33.0 mg/kg/injection, schedule: Q01DX009 (ip), vehicle: saline with Tween-80 97 % of control | [1] 98 % of control | [2] 90 % of control

COc1cc2cc(C)[nH]c2cc1OC
inactive: [4] 101 % of control | [5] 95 % of control | [6] 98 % of control

Cc1cccc(C(=O)OCCBr)c1
inactive: dose: 100.0 mg/kg/injection, schedule: Q04DX003 (ip), vehicle: saline sonified 98 % of control | dose: 200.0 mg/kg/injection, schedule: Q04DX003 (ip), vehicle: saline sonified 104 % of control | dose: 400.0 mg/kg/injection, schedule: Q04DX003 (ip), vehicle: saline sonified 106 % of control

COc1ccc(C2C3CCC(C3)C2C(C)=O)cc1 (stereo not drawn)
inactive: dose: 100.0 mg/kg/injection, schedule: Q01DX001 (ip), vehicle: saline with Tween-80 101 % of control | dose: 200.0 mg/kg/injection, schedule: Q01DX001 (ip), vehicle: saline with Tween-80 90 % of control | dose: 400.0 mg/kg/injection, schedule: Q01DX001 (ip), vehicle: saline with Tween-80 92 % of control

COC(=O)CC1C(C)(C)C(=O)C2CC3=C4CC(=O)OC(c5ccoc5)C4(C)CCC3C1(C)C2=O (stereo not drawn)
inactive: [14] 97 % of control | [15] 92 % of control | [16] 90 % of control

CCOC(=O)C(CBr)CBr
inactive: dose: 100.0 mg/kg/injection, schedule: Q04DX002 (ip), vehicle: saline 91 % of control | dose: 200.0 mg/kg/injection, schedule: Q04DX002 (ip), vehicle: saline 88 % of control | dose: 400.0 mg/kg/injection, schedule: Q04DX002 (ip), vehicle: saline 122 % of control

COc1cc([N+](=O)[O-])ccc1NC(=O)Oc1ccc2ccccc2c1
inactive: [13] 98 % of control | [17] 96 % of control | [18] 100 % of control

O=C(NC(=S)Nc1ccc(F)cc1)c1ccco1
inactive: [12] 94 % of control | [13] 92 % of control | [1] 103 % of control | [2] 97 % of control

O=C(O)C(=O)c1ccc(O)cc1O
inactive: [5] 111 % of control | [6] 103 % of control

CC(C)(Cl)CNC(=O)c1ccc([N+](=O)[O-])cc1
inactive: [13] 92 % of control | [1] 107 % of control | [17] 96 % of control | [2] 94 % of control | [18] 91 % of control | [3] 92 % of control

C(=NCCN=Cc1c[nH]c2ccccc12)c1c[nH]c2ccccc12
inactive: dose: 100.0 mg/kg/injection, schedule: Q01DX009 (ip), vehicle: saline with Tween-80 100 % of control | dose: 100.0 mg/kg/injection, schedule: Q04DX003 (ip), vehicle: saline with Tween-80 89 % of control | dose: 200.0 mg/kg/injection, schedule: Q01DX009 (ip), vehicle: saline with Tween-80 102 % of control | dose: 200.0 mg/kg/injection, schedule: Q04DX003 (ip), vehicle: saline with Tween-80 96 % of control

O=C(CCCC(=O)N/N=C/c1c2ccccc2cc2ccccc12)N/N=C/c1c2ccccc2cc2ccccc12
inactive: [4] 100 % of control | [5] 102 % of control | [6] 96 % of control | [7] 96 % of control

CSc1nnc(N)s1
inactive: [11] 91 % of control | [12] 94 % of control | [13] 94 % of control | dose: 100.0 mg/kg/injection, schedule: Q04DX002 (ip), vehicle: Klucel (hydroxypropylcellulose) (HPC) 94 % of control and 91 % of control | [17] 99 % of control | dose: 200.0 mg/kg/injection, schedule: Q04DX002 (ip), vehicle: Klucel (hydroxypropylcellulose) (HPC) 97 % of control and 98 % of control | [18] 98 % of control | dose: 400.0 mg/kg/injection, schedule: Q04DX002 (ip), vehicle: Klucel (hydroxypropylcellulose) (HPC) 103 % of control | dose: 800.0 mg/kg/injection, schedule: Q04DX002 (ip), vehicle: Klucel (hydroxypropylcellulose) (HPC) 87 % of control

Cn1c(N)c(N=Nc2ccc(S(=O)(=O)Nc3ccccn3)cc2)c(=O)n(C)c1=O
inactive: [14] 98 % of control | [15] 93 % of control | [16] 93 % of control
